Measurements as given in patent publication US20130306000A1, “Aflaxtoxin Resistant Poultry” (priority 2012, published 2013).

Tests used:
[1] = tested on: Turkey liver cytosolic GSTs; experiment: Turkey liver cytosolic GST activity toward substrates; type: biochemical; settings: turkey liver cytosol
BHA-induced mouse liver = type: in vitro ADME

Molecule	activity of turkey liver cytosolic GSTs toward the substrate [1]	AFB1 detoxification, specific enzyme activity (BHA-induced mouse liver) [nmol/min per mg protein]
exo-AFB1-8,9-epoxide [AFBO]	not toward	
aflatoxin B1 [AFB1]		0.426 ± 0.04
O=[N+]([O-])c1ccc(Cl)c(Cl)c1 [DCNB, dichlornitrobenzene]	active	
O=[N+]([O-])c1ccc(Cl)c([N+](=O)[O-])c1 [CDNB, chlorodinitrobenezene]	active	
